Data from PubChem BioAssay AID292 (DTP/NCI, 2004).
Where “and” joins values, the source holds several entries; their conditions need not be identical. Identical values can stand only once. Inconclusive results and toxic doses are left out.

System: B6C3F1 mice, ip Sarcoma M5076, median survival T/C
Test: NCI In Vivo Anticancer Drug Screen. Data for tumor model Sarcoma M5076 (intraperitoneal) in B6C3F1 mice
Conditions: endpoint: median survival time, higher = longer survival
How it was run: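 Antitumour effect is judged in tumour-bearing mice by comparing survival after compound dosing against vehicle-only animals, reported as T/C.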

[1] = dose: 100.0 mg/kg/injection, schedule: Q04DX004 (ip), vehicle: saline with Tween-80
[2] = dose: 200.0 mg/kg/injection, schedule: Q04DX004 (ip), vehicle: saline with Tween-80
[3] = dose: 400.0 mg/kg/injection, schedule: Q04DX004 (ip), vehicle: saline with Tween-80
[4] = dose: 18.75 mg/kg/injection, schedule: Q04DX004 (ip), vehicle: saline with Tween-80
[5] = dose: 37.5 mg/kg/injection, schedule: Q04DX004 (ip), vehicle: saline with Tween-80
[6] = dose: 50.0 mg/kg/injection, schedule: Q04DX004 (ip), vehicle: saline with Tween-80
[7] = dose: 75.0 mg/kg/injection, schedule: Q04DX004 (ip), vehicle: saline with Tween-80
[8] = dose: 50.0 mg/kg/injection, schedule: Q04DX004 (ip), vehicle: Klucel (hydroxypropylcellulose) (HPC)
[9] = dose: 100.0 mg/kg/injection, schedule: Q04DX004 (ip), vehicle: Klucel (hydroxypropylcellulose) (HPC)
[10] = dose: 200.0 mg/kg/injection, schedule: Q04DX004 (ip), vehicle: Klucel (hydroxypropylcellulose) (HPC)
[11] = dose: 400.0 mg/kg/injection, schedule: Q04DX004 (ip), vehicle: Klucel (hydroxypropylcellulose) (HPC)
[12] = dose: 150.0 mg/kg/injection, schedule: Q04DX004 (ip), vehicle: saline with Tween-80

CCOC(=O)C1=C(C)O/C(=C/c2cccc(Cl)c2)C1=O
T/C [1]: 99 % of control | T/C [2]: 100 % of control | T/C [3]: 93 % of control

CCN(CC)Cc1cc2[nH]c3c4ccc(Cl)cc4ncc3c2cc1OC (tested in a mixture with another compound)
T/C [4]: 104 % of control | T/C (dose: 25.0 mg/kg/injection, schedule: Q04DX004 (ip), vehicle: saline with Tween-80): 117 % of control | T/C [5]: 112 % of control | T/C [6]: 110 % of control | T/C [7]: 99 % of control | T/C [1]: 105 % of control

CC(C)(C)NC(C1=CC(C)(C)c2ccccc2C1=O)c1ccccc1 (stereo not given)
T/C [8]: 103 % of control | T/C [9]: 101 % of control | T/C [10]: 110 % of control | T/C [11]: 104 % of control

O=C(Nc1cccc(C(F)(F)F)c1)C(Cl)=C(Cl)Cl
T/C (dose: 37.5 mg/kg/injection, schedule: Q04DX004 (ip), vehicle: Klucel (hydroxypropylcellulose) (HPC)): 95 % of control | T/C (dose: 75.0 mg/kg/injection, schedule: Q04DX004 (ip), vehicle: Klucel (hydroxypropylcellulose) (HPC)): 103 % of control | T/C (dose: 150.0 mg/kg/injection, schedule: Q04DX004 (ip), vehicle: Klucel (hydroxypropylcellulose) (HPC)): 102 % of control | T/C (dose: 300.0 mg/kg/injection, schedule: Q04DX004 (ip), vehicle: Klucel (hydroxypropylcellulose) (HPC)): 102 % of control | T/C (dose: 600.0 mg/kg/injection, schedule: Q04DX004 (ip), vehicle: Klucel (hydroxypropylcellulose) (HPC)): 87 % of control

COC(=O)C12OCC34C(CC5C(C)C6=CC(=O)OC6=CC5(C)C3C(O)C1O)OC(=O)C(O)C24 (stereo not given)
T/C (dose: 0.25 mg/kg/injection, schedule: Q04DX003 (ip), vehicle: Klucel (hydroxypropylcellulose) (HPC)): 107 % of control | T/C (dose: 0.43 mg/kg/injection, schedule: Q04DX003 (ip), vehicle: Klucel (hydroxypropylcellulose) (HPC)): 107 % of control | T/C (dose: 0.5 mg/kg/injection, schedule: Q04DX004 (ip), vehicle: Klucel (hydroxypropylcellulose) (HPC)): 111 % of control and 113 % of control | T/C (dose: 0.72 mg/kg/injection, schedule: Q04DX003 (ip), vehicle: Klucel (hydroxypropylcellulose) (HPC)): 103 % of control | T/C (dose: 1.0 mg/kg/injection, schedule: Q04DX004 (ip), vehicle: Klucel (hydroxypropylcellulose) (HPC)): 116 % of control and 122 % of control | T/C (dose: 1.2 mg/kg/injection, schedule: Q04DX003 (ip), vehicle: Klucel (hydroxypropylcellulose) (HPC)): 110 % of control | T/C (dose: 2.0 mg/kg/injection, schedule: Q04DX003 (ip), vehicle: Klucel (hydroxypropylcellulose) (HPC)): 112 % of control | T/C (dose: 2.0 mg/kg/injection, schedule: Q04DX004 (ip), vehicle: Klucel (hydroxypropylcellulose) (HPC)): 123 % of control | T/C (dose: 4.0 mg/kg/injection, schedule: Q04DX004 (ip), vehicle: Klucel (hydroxypropylcellulose) (HPC)): 116 % of control

Nc1nc(C=O)nc2c1ncn2C1OC(CO)C(O)C1O (stereo not given)
T/C (dose: 12.5 mg/kg/injection, schedule: Q04DX004 (ip), vehicle: water): 104 % of control | T/C (dose: 25.0 mg/kg/injection, schedule: Q04DX004 (ip), vehicle: water): 104 % of control | T/C (dose: 50.0 mg/kg/injection, schedule: Q04DX004 (ip), vehicle: water): 106 % of control | T/C (dose: 100.0 mg/kg/injection, schedule: Q04DX004 (ip), vehicle: water): 109 % of control | T/C (dose: 200.0 mg/kg/injection, schedule: Q04DX004 (ip), vehicle: water): 123 % of control

CCC1(O)C(=O)OCc2c1cc1n(c2=O)Cc2cc3cc(N)ccc3nc2-1 (stereo not given)
T/C (dose: 7.5 mg/kg/injection, schedule: Q04DX004 (ip), vehicle: suspension in saline): 160 % of control | T/C (dose: 9.0 mg/kg/injection, schedule: Q04DX004 (ip), vehicle: suspension in saline): 174 % of control | T/C (dose: 15.0 mg/kg/injection, schedule: Q04DX004 (ip), vehicle: suspension in saline): 170 % of control and 231 % of control | T/C (dose: 25.0 mg/kg/injection, schedule: Q04DX004 (ip), vehicle: suspension in saline): 150 % of control | T/C (dose: 42.0 mg/kg/injection, schedule: Q04DX004 (ip), vehicle: suspension in saline): 90 % of control

COc1ccc(C(C)c2cc3c(cc2OC)OCO3)cc1 (stereo not given)
T/C [6]: 115 % of control | T/C [2]: 110 % of control

O=C1NC2(CN3CCC2CC3)C(=O)N1CN(Cc1ccccc1)c1ccccc1 (stereo not given)
T/C [6]: 97 % of control | T/C [1]: 102 % of control | T/C [2]: 93 % of control | T/C [3]: 87 % of control | T/C (dose: 800.0 mg/kg/injection, schedule: Q04DX004 (ip), vehicle: saline with Tween-80): 90 % of control

CCc1ccccc1N1CCN(C(=O)c2cc(OC)c(OC)c(OC)c2)CC1
T/C (dose: 25.0 mg/kg/injection, schedule: Q04DX004 (ip), vehicle: Klucel (hydroxypropylcellulose) (HPC)): 111 % of control | T/C [8]: 112 % of control | T/C [9]: 122 % of control

CCOc1ccc(N2C(=O)C(=O)C(C(C)=O)C2=O)cc1 (stereo not given)
T/C [8]: 102 % of control | T/C [9]: 102 % of control | T/C [10]: 101 % of control | T/C [11]: 100 % of control

COc1ccccc1NC(=O)C1C(=O)C(=O)N(c2ccccc2OC)C1=O (stereo not given)
T/C [8]: 105 % of control | T/C [9]: 97 % of control | T/C [10]: 96 % of control

c1ccc2c(c1)-c1ccccc1C1NC21 (stereo not given)
T/C [4]: 93 % of control | T/C [5]: 98 % of control | T/C [7]: 94 % of control | T/C [12]: 96 % of control | T/C (dose: 300.0 mg/kg/injection, schedule: Q04DX004 (ip), vehicle: saline with Tween-80): 102 % of control

CCOC(=O)N(C)N=NC
T/C (dose: 1.3 mg/kg/injection, schedule: Q04DX004 (ip), vehicle: saline): 110 % of control | T/C (dose: 2.16 mg/kg/injection, schedule: Q04DX004 (ip), vehicle: saline): 119 % of control | T/C (dose: 3.6 mg/kg/injection, schedule: Q04DX004 (ip), vehicle: saline): 122 % of control | T/C (dose: 10.0 mg/kg/injection, schedule: Q04DX004 (ip), vehicle: saline): 155 % of control | T/C (dose: 30.0 mg/kg/injection, schedule: Q04DX004 (ip), vehicle: saline): 158 % of control | T/C (dose: 60.0 mg/kg/injection, schedule: Q04DX004 (ip), vehicle: saline): 168 % of control

Cc1ccc(/C=C2/N=C([Se])N(C)C2=O)cc1
T/C [5]: 124 % of control | T/C [7]: 98 % of control | T/C [12]: 89 % of control

O=P1(N(CCCl)CCCl)NCCCO1 (stereo not given)
T/C (dose: 80.0 mg/kg/injection, schedule: Q04DX003 (ip), vehicle: saline): 201 % of control | T/C (dose: 160.0 mg/kg/injection, schedule: Q04DX003 (ip), vehicle: saline): 261 % of control

Cc1ccc(C2C(C#N)C(=O)NC(=O)C2C#N)cc1 (stereo not given)
T/C [8]: 99 % of control | T/C [9]: 99 % of control | T/C [10]: 86 % of control

CC(C)[C@](O)(C(=O)OCC1=CC[N+]2([O-])CC[C@@H](O)[C@@H]12)[C@H](C)O (stereo not given in full)
T/C (dose: 75.0 mg/kg/injection, schedule: Q04DX005 (ip), vehicle: saline): 111 % of control | T/C (dose: 112.5 mg/kg/injection, schedule: Q04DX004 (ip), vehicle: water): 122 % of control | T/C (dose: 150.0 mg/kg/injection, schedule: Q04DX005 (ip), vehicle: saline): 108 % of control | T/C (dose: 225.0 mg/kg/injection, schedule: Q04DX004 (ip), vehicle: water): 150 % of control | T/C (dose: 300.0 mg/kg/injection, schedule: Q04DX005 (ip), vehicle: saline): 153 % of control | T/C (dose: 450.0 mg/kg/injection, schedule: Q04DX004 (ip), vehicle: water): 199 % of control | T/C (dose: 600.0 mg/kg/injection, schedule: Q04DX005 (ip), vehicle: saline): 230 % of control | T/C (dose: 900.0 mg/kg/injection, schedule: Q04DX004 (ip), vehicle: water): 208 % of control | T/C (dose: 1200.0 mg/kg/injection, schedule: Q04DX005 (ip), vehicle: saline): 230 % of control | T/C (dose: 1800.0 mg/kg/injection, schedule: Q04DX004 (ip), vehicle: water): 291 % of control

CC(/C=C/C1OC(=O)C=CC1C)=C\C(C)C/C=C/C(C)=C/C(CO)C(=O)C(C)C(O)C(C)C/C(C)=C/C(=O)O (stereo not given)
T/C (dose: 13.63 micrograms/kg/injection, schedule: Q04DX004 (ip), vehicle: other): 100 % of control | T/C (dose: 27.25 micrograms/kg/injection, schedule: Q04DX004 (ip), vehicle: other): 107 % of control | T/C (dose: 54.5 micrograms/kg/injection, schedule: Q04DX004 (ip), vehicle: other): 109 % of control | T/C (dose: 109.0 micrograms/kg/injection, schedule: Q04DX004 (ip), vehicle: other): 113 % of control | T/C (dose: 500.0 micrograms/kg/injection, schedule: Q04DX004 (ip), vehicle: other): 171 % of control | T/C (dose: 1000.0 micrograms/kg/injection, schedule: Q04DX004 (ip), vehicle: other): 202 % of control | T/C (dose: 2000.0 micrograms/kg/injection, schedule: Q04DX004 (ip), vehicle: other): 192 % of control
